Some results are limits rather than exact numbers.

In a melting point compilation (Tetko et al.; mined from patent text by program, amines drawn as free bases though some values may be those of a salt) one finds melting point data, which are given here for 90 compounds.

`CC1CC=C(c2nnn(C)n2)CN1C` (stereo not given) yielded a melting point of 93 to 95 °C.
Turning to `ClCCCOc1ccc(-c2nccs2)cc1`, the melting point was in the range of 72 to 75 °C.
For `Cc1ccc(C(=O)OCn2ncc(=O)[nH]c2=O)cc1` the value was 139 °C; for `CCCCCCCCCCCCCCCCCC(=O)c1ccc(C2=NC(C)(C)CO2)cc1`, 73 to 76 °C; for `CCCC(NOCC)=C1C(=O)CC(c2cc3ccccc3[nH]c2=O)CC1=O` (stereo not given), 155 to 157 °C.
On to `COc1ccc(NC(=S)Nc2cscc2C)c(N)c1`, for which the melting point fell in the range of 143 to 146 °C.
`CC(C)(C)c1cc(CC(Cc2cc(C(C)(C)C)c(O)c(C(C)(C)C)c2)(Cc2cc(C(C)(C)C)c(O)c(C(C)(C)C)c2)[N+](=O)[O-])cc(C(C)(C)C)c1O` returned a melting point of 199 to 201 °C.
`CCOC(=O)CN(C)C1CCCN(C(=O)c2ccc(NC(=O)c3ccccc3C)cc2)c2ccccc21` (stereo not given) had a melting point of 167 to 168 °C.
`CC(=O)Nc1ccc2c(c1)OC(C)O2` (stereo not given) displayed a melting point of 155 to 156 °C.
The figure for `CC(Nc1cc(Br)ccc1OCc1ccccc1)c1ccc(C(=O)O)cc1` (stereo not given) is 186 to 187 °C.
As for `CCCc1nc(NCc2ccccn2)nc(Nc2cccc(C(C)C)c2)n1`, the melting point is 103 to 104 °C.
The compound `CN(C)C1CCc2[nH]c3ccc(O)cc3c2C1` (stereo not given) returned a melting point of 202 to 204 °C.
On to `O=S(CCCCCl)Cc1ccc(Cl)cc1` (stereo not given), for which the melting point is 56 to 58 °C.
Take `CCCOc1ncc(NS(=O)(=O)CC(=O)O)cc1-c1nc2c(CCC)nn(C)c2c(=O)[nH]1`: the melting point fell in the range of 267 to 270 °C.
For `CCOC(=O)c1c(Cl)[nH]c(=O)c(I)c1Oc1cc(C)cc(C)c1` the value was 180 to 182 °C; for `CCn1c(C)cc(=O)nc1S`, 190 °C.
In turn, `CC1Cc2cc3c(cc2C(c2ccc([N+](=O)[O-])cc2)=NN1c1n[nH]c(=O)s1)OCO3` (stereo not given) returned a melting point of 288 °C.
In the case of `CC(=O)OC1CSC(Sc2ccc(C(C)=O)cc2)C(OC(C)=O)C1OC(C)=O` (stereo not given), the melting point is 122 °C.
`CCOC(=O)c1cn(CC)c2cc(C(=O)C=CN(C)C)c(F)cc2c1=O` yielded a melting point of 176 to 179 °C.
Turning to `CCN1c2ncc(CO)cc2C(=O)N(C)c2ccc(F)nc21`, the melting point is 40 °C.
`Nc1ccc(C2=NNC(=O)Cc3cc4c(cc32)OCO4)cc1` showed a melting point of 242 to 244 °C.
In turn, `CCCC(Nc1ccc(OCc2ccccc2)cc1)C(=O)OCC` (stereo not given) came in with a melting point of 68 °C.
`COc1ccc(CCCOc2c(C)cc(-c3noc(C(F)(F)F)n3)cc2C)cn1` gave a melting point of 62 to 64 °C.
For `O=[N+]([O-])c1ccc(OC(c2ccc(F)cc2)(c2ccc(F)cc2)c2nccs2)cc1C(F)(F)F`, the melting point lay in the range of 133 to 134 °C.
Regarding `COc1cc(Nc2c(C#N)cnc3cc(OS(=O)(=O)C(F)(F)F)c(OC)cc23)c(Cl)cc1Cl`, the melting point is 220 to 223 °C.
For `CCc1c(C)nc2ccc([N+](=O)[O-])cn2c1=O` the value was 164 to 165 °C; for `CS(=O)(=O)c1ccc(-c2cnn(CC(F)(F)F)c(=O)c2-c2ccc(F)c(Cl)c2)cc1`, 165 to 166 °C.
As for `COc1ccc(CCC(=O)C2C(=O)C=C(C)OC2=O)cc1O` (stereo not given), the melting point was in the range of 115 to 116 °C.
`Cc1cccc(Cn2c(NC3CCN(CCNc4ncccn4)CC3)nc3cccnc32)n1` registered a melting point of 187 °C.
As for `CC1C=NNc2c(-c3ccc(F)cc3)c(-c3ccncc3)nn21` (stereo not given), the melting point is 204 °C.
Regarding `COC(=O)C(C#N)=C(C=CN(C)C)c1ccc(OC)cc1`, the melting point was 175 to 178 °C.
In turn, `C=CC(=O)c1cc(OC)c(OC)c(OC)c1` came in with a melting point of 46 to 47 °C.
Compound `CN(C)n1c(Br)nn(C(=O)Oc2ccccc2)c1=O` registered a melting point of 136 °C.
In turn, `COCCO[C@@H]1c2ccn3c(C)c(C)nc3c2N[C@H](c2ccccc2)[C@H]1OC(=O)CCCCBr` displayed a melting point of 98.6 °C.
As to `O=c1[nH]c2ccc(Cl)cc2c(=O)o1`, the melting point is 200 °C.
The compound `O=C(O)c1ccc(-c2ccc3cc(OCc4ccc(F)cc4)c(C45CC6CC(CC(C6)C4)C5)cc3c2)cc1O` returned a melting point of 240 to 241 °C.
In turn, `COc1ccc(C(=O)Nc2ccccc2)cc1NS(=O)(=O)c1ccc(Cl)c(Cl)c1` yielded a melting point of 191 to 193 °C.
Take `NS(=O)(=O)c1cc2cc(CBr)ccc2s1`: the melting point was in the range of 171 to 173 °C.
As to `CC(C)=CCn1ncc(-c2ccc(S(N)(=O)=O)c(F)c2)c(-c2ccc(F)cc2)c1=O`, the melting point is 134 to 136 °C.
`COc1cccc(-c2nc(C)nn2-c2ccc(S(N)(=O)=O)cc2)c1` yielded a melting point of 211 to 212 °C.
`O=C(NC1CC1)c1cc2[nH]cnc2c(Cl)c1NC(=O)c1cc(C(F)(F)F)nn1-c1ncccc1Cl` gave a melting point of 198 to 201 °C.
For `CCCCn1nnc(NCc2ccc(-c3ccccc3-c3nnn[nH]3)cc2)c1C(=O)O`, the melting point was 154 to 155 °C.
The figure for `CC(C)c1cccc(C(C)C)c1NC(=O)NCCN1CCN(CCSc2nc3ncccc3o2)CC1` is 175 to 176 °C; for `CC(C)(C)c1cc(C=C2SCN(CCO)C2=O)cc(C(C)(C)C)c1O` it is 131 to 135 °C.
Consider `CCN(CC)S(=O)(=O)c1ccc2[nH]c(-c3c(C)c(Cl)cc(C(C)(C)C)c3O)nc2c1`, for which the melting point was 277 to 278 °C.
`O=C(O)c1cc(-c2ccccc2F)ns1` returned a melting point of 191 to 192 °C.
For the compound `O=C1c2cc(Br)ccc2COc2ccc(Br)cc21`, the melting point was in the range of 193 to 194 °C.
As to `Cn1ncc2c1-c1c(Oc3ccc(F)cc3)sc(C(N)=O)c1CC2`, the melting point lay within 188 to 189 °C.
Take `c1cc(-c2nc3c4c(ncc3[nH]2)CCOC4)no1`: the melting point is greater than 300 °C.
Compound `COc1cccc2c(OCCN3CCOCC3)c(-c3ccccc3)c(=O)oc12` showed a melting point of 90 to 91 °C.
As for `Cc1[nH]c2ccc(F)cc2c1C(=O)NC1CCN(CCc2ccccc2)CC1`, the melting point fell in the range of 159 to 162 °C.
The compound `CC(=O)Nc1nc(CCc2ccc(CBr)cc2)cs1` returned a melting point of 148 to 150 °C.
`CCOC(=O)c1c(C)nc2c(ncn2C)c1Cl` displayed a melting point of 56 to 58 °C.
On to `CC(C)NCCCCOc1ccc(O)cc1`, for which the melting point was in the range of 91 to 93 °C.
The compound `Fc1ccc(-c2ncn(CCCSc3ccccc3)c2-c2ccncc2)cc1` gave a melting point of 98 to 99 °C.
Turning to `CCNc1nc(C)c(-c2ccnc(Nc3ccc(N4CCOCC4)c(C)c3)n2)s1`, the melting point was 213 to 214 °C.
On to `CC(C)=CCCC(C)=CCCC(C)=Cc1ccc(C(=O)O)cc1`, for which the melting point fell in the range of 92 to 92.5 °C.
As for `CN1CCN(c2ccc(N)cc2C#N)CC1`, the melting point is 45 to 46 °C.
`CCOC(=O)c1cccc(NC(=O)C=Cc2cc(C(C)C)c(C(C)C)o2)c1` displayed a melting point of 160 to 161 °C.
Take `O=C(CCl)c1ccc(OCCOc2ccc(C(=O)CCl)cc2)cc1`: the melting point is 165 °C.
`Cc1ccc(S(=O)(=O)NC(=O)C(C)c2ccc3cc(OCc4ccc5ccccc5n4)ccc3c2)cc1` (stereo not given) gave a melting point of 201 to 205 °C.
The compound `CC1(C)CCC(C)(C)c2cc(NCc3ccc(C(=O)O)cc3)ccc21` showed a melting point of 225 to 231 °C.
Take `COc1cc2ccc(C(=O)N3CCN(C(=O)c4cc(OC)c(OC)c(OC)c4)CC3)cc2cc1OC`: the melting point was 224 to 226 °C.
The figure for `CCNn1c(C)nc(N2CCc3ccccc3CC2)c(C#N)c1=O` is 172 to 174 °C.
In turn, `O=C(CNc1ccccc1)Nc1c(Cl)cccc1C(=O)O` yielded a melting point of 184 to 185 °C.
The figure for `CN(C)CCCOc1ccc(-c2nnc(CSCCOc3ccccc3)o2)cc1` is 70 °C.
Consider `COc1ccc(OC(=O)c2ncn3c2[C@@H]2CCCN2C(=O)c2c(Cl)cccc2-3)cc1`, for which the melting point lay within 210 to 211 °C.
Compound `CNC(=O)C(=O)c1ccccc1COc1ccccc1` came in with a melting point of 78 °C.
The compound `CN1Cc2c(Cl)cccc2SCC1=O` came in with a melting point of 122 to 125 °C.
`Cc1nccn1CC1CC2CCCn3c2c(c2ccccc23)C1=O` (stereo not given) showed a melting point of 169 to 171 °C.
For `CCC1(CC)OC(c2ccc(S(C)(=O)=O)cc2)=C(c2ccc(OC)c(F)c2)C1=O`, the melting point was in the range of 183 to 184 °C.
In turn, `CCCCCCCCCCCCCc1c[nH]c(C=O)c1` showed a melting point of 61 to 64 °C.
The figure for `Cc1c(C)c2ccc(OCCCN3CCC(N)CC3)cc2oc1=O` is 92 to 94 °C; for `CC(O)CNCc1cc2c(=O)c(C(=O)NCc3ccc(Cl)cc3)cn(C)c2o1` (stereo not given) it is 172 to 173 °C; for `COc1ccccc1C1C(C(=O)c2ccc(C)cc2)=C(O)C(=O)N1c1ccc(C)nn1` (stereo not given) it is 211 to 213 °C.
For `CSc1c(C(=O)O)ccc(Br)c1F`, the melting point is 126 to 129 °C.
Turning to `CC(C)(Cc1ccc(Br)cc1)C(C(=O)O)C(=O)O`, the melting point fell in the range of 169 to 173 °C.
For `Cc1cc2cc(CN3CCCC3)cnc2cc1NC(=O)c1ccc(-c2ccc3ccccc3c2)cc1` the value was 194 °C; for `Sc1nnc(-c2cccnc2)o1`, 237 °C.
The figure for `COc1cccc(S)c1S(=O)(=O)NC(C)(C)C` is 210 °C.
As for `CCc1nc(/C=C/c2cn(-c3ccccc3)nc2OCc2ccc(OCc3nc(-c4cccc(C#N)c4)oc3C)c(OC)c2)cs1`, the melting point lay in the range of 138 to 140 °C.
Take `CNC(=O)c1ccc(N2CCNCC2)c(Cl)c1`: the melting point was 176 to 189 °C.
`CS(=O)c1ccc(CCCCCCCCCCC(Cl)(Cl)C(=O)O)cc1` (stereo not given) displayed a melting point of 75 to 76 °C.
On to `CCOC(=O)c1nc2c(=O)[nH]c3cc(C(F)(F)F)ccc3n2c1CBr`, for which the melting point was in the range of 247 to 248 °C.
For the compound `CN1CCN(C(=O)c2ccc(-n3nc(-c4ccccc4O)nc3-c3ccccc3O)cc2)CC1`, the melting point was in the range of 226 to 229 °C.
For `CSc1ncc(Br)cn1` the value was 63 to 65 °C; for `O=Cc1c[nH]c2cccc(O)c12`, 196 to 200 °C.
In turn, `O=C(O)c1cn(-c2ccc(F)cc2F)c2nc(S(=O)(=O)c3ccccc3)c(F)cc2c1=O` returned a melting point of 252 to 258 °C.
The figure for `C=CCc1cc(C2=NNC(=O)CC2)ccc1OCC1CO1` (stereo not given) is 92.5 to 95 °C.
In the case of `OC1(C(c2ccccc2)c2ccccc2)CSC2=NCCCCN21` (stereo not given), the melting point lay within 123 to 125 °C.

The term melting point denotes the temperature, or range, at which the solid turns liquid.
